Measurements reported in US6982258B2, “Low-calcemic oxime analogs of 1α,25-dihydroxy vitamin D3” (Cytochroma Inc., priority 2001, dated 2006).

Legend:
CYP24 = target: T1, CYP24 (Homo sapiens, UniProt Q07973); experiment: CYP24 enzyme assay (induced HPK1A-ras cells); format: cell-based; settings: ketoconazole as control standard
T1 construct: When the HPK1A-ras cells were 80-90% confluent, add 1 μL 10^−5 M 1,25(OH)2D3; endogenous in cells; host or cells: HPK1A-ras cells induced with 10^-8 M 1,25(OH)2D3
T1 sequence (Q07973 36-514): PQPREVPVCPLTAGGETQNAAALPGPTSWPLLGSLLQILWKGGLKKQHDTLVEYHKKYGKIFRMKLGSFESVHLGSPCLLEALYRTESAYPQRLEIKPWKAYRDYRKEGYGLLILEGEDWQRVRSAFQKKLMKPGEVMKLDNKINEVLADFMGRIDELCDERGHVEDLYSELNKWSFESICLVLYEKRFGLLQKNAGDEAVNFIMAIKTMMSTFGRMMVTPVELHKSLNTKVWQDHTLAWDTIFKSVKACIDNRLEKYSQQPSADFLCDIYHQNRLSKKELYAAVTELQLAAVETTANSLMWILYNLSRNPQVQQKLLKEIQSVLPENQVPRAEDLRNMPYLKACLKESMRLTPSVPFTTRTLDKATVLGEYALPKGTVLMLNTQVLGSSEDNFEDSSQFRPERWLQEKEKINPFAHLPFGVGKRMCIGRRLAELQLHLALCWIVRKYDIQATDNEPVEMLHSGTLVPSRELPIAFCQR
Method: CYP24 Enzyme Assay (Induced […] Cells)
• 1,25(OH)2D3 10^−5 M • [^3H]-1,25(OH)2D3 25,000 CPM/μL • HPK1A-ras cells • 48-well plate • Methanol • Dichlorimethane • Saturated KCI:KCI 30 g, H2O400 ml (ii) Procedure: • 1. Induction of HPK1A-ras cells (The day before assay) • When the HPK1A-ras cells were 80-90% confluent, add 1 μL 10^−5 M 1,25(OH)2D3 to 1 mL medium in the plate (final concentration is 10^−8 M). • 2. Preparation of cell suspension • After 18 to 20 hours induction, removed the medium and washed the cell twice with PBS. Then tripsinized the cells from plate, centrifuge (2,000 rpm, 5 min) and suspended cells pellet in DMEM medium+1% BSA. • Counted the cells and adjust cells density to 250,000/150 μL, add 150 μL cell suspension to each well in 48-well plate. (including 3 wells as no cell control, and 3 well cells without drug or inhibitor as control). • 3. Added 25 μL ketoconazole (final concentration 10^−5 M, 10^−6 M, 10^−7 M, 10^−8 M) or drugs into each designated well. Keep the plate in 37° C. for 10 min. • 4. Preparation of substrate • Took certain amount of DMEM+1% BSA medium (25*Well number+200)μL to a tube, added certain amount of ^3H-1,25(OH)2D3 (well number+2) μL and certain amount of 100 mM DPPD (well number/5)μL and mixed them by vortex. • 5. Incubation • Added 25 μL substrate to each well, incubated the plate at 37° C. for 3 hour. • Added 25 μL substrate to counting plate (2 well) as a total count. • 6. Lipid extraction and counting • Added 500 μL methanol to each well to stop the reaction, transfered them to tube • Added 250 μL dichloromethane and vortex. • Added 250 μL dichloromethane and 250 μL saturated KCI, and vortexed. • Centrifuged at 4000 rpm for 5 min. • Transfered 100 μL of aqueous phase (upper phase) to counting plastic counting plate. Added 600 μL of scintillation fluid to each well. Counted the plate in scintillation counter. • 7. Calculation enzyme activity • CPM of cell control after subtraction of CPM of NCC is as 100% enzyme activity. • Enzyme activity=(CPM in test compounds well−CPM in NCC well)/(CPM in Cell control−CPM in NCC well)* 100% • Dilution of Ketoconazole • Stock 10^−2 M
• Dilution of test compounds • Stock 10^−3 M

[1] = Calcium excretion (hypercalcemia assay, rat urine); format: in vivo; settings: administered orally daily for one week
Method: As a measure of their safety in animals, compound of Formula I(a) was administered orally to rats daily for 1 week at a similar dose (0.5 microgram/Kg body weight) to calcitriol, using a procedure described previously (Posner G. H. et al. J. Med. Chem. 1999, 42, 3425-3435). A graph showing the effect of compound I(a) (indicated as BH 1625(NOH)) on calcium levels in rat urine in comparison to calcitriol (1α,25-Dihydroxy vitamin D3) is shown in FIG. 6.

Row | Compound | inhibition of CYP24 activity compared to ketoconazole (CYP24) | levels of calcium in the urine [1]
1 | C=C1/C(=C\C=C2/CCC[C@]3(C)C([C@H](C)CCC/C(=N\O)C(C)(C)C)=CC[C@@H]23)C[C@@H](O)C[C@@H]1O [I(a)] | significantly greater inhibition of CYP24 than ketoconazole | –
2 | C=C1/C(=C\C=C2/CCC[C@]3(C)C([C@H](C)CCC/C(=N\OC)C(C)(C)C)=CC[C@@H]23)C[C@@H](O)C[C@@H]1O [I(c)] | significantly greater inhibition of CYP24 than ketoconazole | –
3 | C=C1/C(=C\C=C2/CCC[C@]3(C)C([C@H](C)CCC/C(=N\OCC)C(C)(C)C)=CC[C@@H]23)C[C@@H](O)C[C@@H]1O [I(e)] | significantly greater inhibition of CYP24 than ketoconazole | –
4 | C=CCO/N=C(\CCC[C@@H](C)C1=CC[C@H]2/C(=C/C=C3/C[C@@H](O)C[C@H](O)C3=C)CCC[C@]12C)C(C)(C)C [I(g)] | significantly greater inhibition of CYP24 than ketoconazole | –
5 | C=C1/C(=C\C=C2/CCC[C@]3(C)C([C@H](C)CCC/C(=N\Oc4ccccc4)C(C)(C)C)=CC[C@@H]23)C[C@@H](O)C[C@@H]1O [I(i)] | significantly greater inhibition of CYP24 than ketoconazole | –
6 | C=C1/C(=C\C=C2/CCC[C@]3(C)[C@@H]([C@H](C)CCCC(C)(C)O)CC[C@@H]23)C[C@@H](O)C[C@@H]1O [calcitriol, 1α,25-Dihydroxy vitamin D3] | – | significant increase in calcium levels in the urine
